Source: PubChem BioAssay AID2651 (Vanderbilt High Throughput Screening Facility, 2010)
The source made the active and inactive calls.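 Rule for the calls: active = mean EC50 from three replicate curves at or below a set limit; inactive = mean EC50 above a set limit.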

Target: Muscarinic acetylcholine receptor M1 (Rattus norvegicus) (UniProt P08482)
Assay: rat M1 PAM analog potency, SAR follow-up, cell-based, calcium mobilization, CHO-K1 (AID 2651)
Conditions: CHO-K1 rat M1, calcium Fluo-4, ACh EC20 potentiation

Sequence of Muscarinic acetylcholine receptor M1 (Rattus norvegicus) (P08482 whole entry, looked up): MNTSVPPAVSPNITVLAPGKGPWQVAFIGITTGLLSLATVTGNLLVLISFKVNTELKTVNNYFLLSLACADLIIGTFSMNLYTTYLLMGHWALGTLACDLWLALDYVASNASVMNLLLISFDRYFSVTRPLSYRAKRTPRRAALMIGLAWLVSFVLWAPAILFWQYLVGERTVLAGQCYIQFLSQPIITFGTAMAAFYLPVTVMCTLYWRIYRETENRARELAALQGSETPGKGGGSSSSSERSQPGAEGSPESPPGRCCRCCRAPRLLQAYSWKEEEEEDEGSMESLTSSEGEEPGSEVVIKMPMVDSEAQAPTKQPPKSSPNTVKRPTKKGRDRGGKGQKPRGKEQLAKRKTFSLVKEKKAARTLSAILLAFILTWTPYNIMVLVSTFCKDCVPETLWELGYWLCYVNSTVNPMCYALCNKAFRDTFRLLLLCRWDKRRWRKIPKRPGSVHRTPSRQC

Structure (SMILES)	EC50
Cc1cc(NC(=O)CS(=O)(=O)c2cn(Cc3ccc(F)c(Cl)c3)c3ccccc23)no1	> 30 µM (inactive)
Cc1cc(NC(=O)CS(=O)(=O)c2cn(Cc3ccc(F)c(-c4ccn[nH]4)c3)c3ccccc23)no1	> 30 µM (inactive)
Cc1cc(NC(=O)CS(=O)(=O)c2cn(Cc3cccc(C(F)(F)F)c3)c3ccccc23)no1	> 30 µM (inactive)
Cc1cc(NC(=O)CS(=O)(=O)c2cn(Cc3cccc(-c4ccccc4)c3)c3ccccc23)no1	> 30 µM (inactive)
Cc1cc(NC(=O)CS(=O)(=O)c2cn(Cc3ccc(Cl)c(Cl)c3)c3ccccc23)no1	> 30 µM (inactive)
